{
  "source": "patent US12290596B2",
  "about": "“Compositions and methods for the treatment of opioid overdose” (priority 2021, dated 2025)",
  "assay": "Example 14 safety: adverse events",
  "conditions": "Part 2",
  "data": [
    {"smiles": "C=C1CC[C@@]2(O)[C@H]3Cc4ccc(O)c5c4[C@@]2(CCN3CC2CC2)[C@H]1O5", "note": "[Nalmefene, 17-cyclopropylmethyl-4,5α-epoxy-6-methylenemorphinan-3,14-diol]", "values": [
      {"measurement": "Number of TEAEs", "value": 172},
      {"measurement": "Subjects reporting Grade 1 severity TEAEs", "value": 68.9, "unit": "%"},
      {"measurement": "Subjects reporting Grade 2 severity TEAEs", "value": 23.0, "unit": "%"},
      {"measurement": "Subjects reporting TEAEs", "value": 91.8, "unit": "%"},
      {"measurement": "Subjects reporting headache", "value": 59.0, "unit": "%"},
      {"measurement": "Subjects who discontinued the study drug due to an AE", "value": 6.6, "unit": "%"}
    ]}
  ]
}
